According to patent US20240408169A1 (priority 2023, published 2024):
Where two headings read alike, the source gives them in different places. *1 amine or outer side, *2 acyl side, *3 side chain or, on linkers, in order; H or OH if unused. Where a SMILES comes first, the peptide text is derived from it. Bridges are numbered along the chain shown (N, C = ends). [ ]: non-standard residue; d: D form. The star is where a group is joined. X72 = CN([C@@H](Cc1cc(Cl)ccc1-c1cnn(C2CCS(=O)(=O)C2)c1)C(=O)[*:2])[*:1]; X82 = CN([C@@H](Cc1cc(Cl)ccc1-c1cnn(S(C)(=O)=O)c1)C(=O)[*:2])[*:1]; X68 = CN([C@@H](Cc1cc(Cl)ccc1-c1cnn(C2CC2)c1)C(=O)[*:2])[*:1]; NMehhhLys(Me) = CN([C@@H](CCCCCCCN(C)[*:3])C(=O)[*:2])[*:1]; X112 = CN([C@@H](Cc1cc(F)ccc1-c1cnn(C)c1)C(=O)[*:2])[*:1]; NMe(hhhLys) = CN([C@@H](CCCCCCCN[*:3])C(=O)[*:2])[*:1]; X17 = CN([C@@H](Cc1cc(Cl)cnc1N1CCOCC1)C(=O)[*:2])[*:1]; Cyclobutanecarbonyl(1-CF3) = O=C(C1(C(F)(F)F)CCC1)*; cBuCO(3,3-F2-1-CF3) = O=C(C1(C(F)(F)F)CC(F)(F)C1)*; Pro(trans-4-F) = O=C(O)[C@@H]1C[C@@H](F)CN1; Gly(cPr) = N[C@H](C(=O)O)C1CC1

Assays:
CyclinA2/CDK2 = biological target: T1, CyclinA2/CDK2 (Homo sapiens, UniProt P20248); test: Fluorescence Polarization (FP) competitive binding assay, Cyclin A2/Cdk2;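 further: plates equilibrated two hours at room temperature before polarization reading, IC50 fitted from eight-concentration compound titration curves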
T1 construct: purchased CRELUX Protein Services

CyclinB1/CDK1 = biological target: T2, CyclinB1/CDK1 (Homo sapiens, UniProt P14635); test: Fluorescence Polarization (FP) competitive binding assay, Cyclin B1/Cdk1;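 further: fluorescence polarization read after equilibration at room temperature, with IC50 taken from serially diluted dose-response curves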
T2 construct: purchased Eurofins, discovery 14-450

CyclinE1/CDK2 = biological target: T3, CyclinE1/CDK2 (Homo sapiens, UniProt P24864); test: Fluorescence Polarization (FP) competitive binding assay, Cyclin E1/Cdk2;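 further: readings taken after two-hour equilibration at room temperature in HEPES buffer with NaCl, DTT, NP-40 and BSA, IC50 fitted from eight-concentration serial dilution series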
T3 construct: purchased Eurofins, discovery 14-475

WI-38 cells = test: MTT proliferation assay, WI-38; format: cell-based; conditions: 3 days compound exposure, 1:3 serial dilution starting at 10 μM;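 further: Eight- or ten-point dilution series, with exposure length chosen to span about three to four cell doublings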
NCI-H1048 cells = test: MTT proliferation assay, NCI-H1048; format: cell-based; conditions: 5 days compound exposure, 1:3 serial dilution starting at 10 μM;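 further: Dose-response in 96-well plates over 8 or 10 concentration points, with exposure spanning 3-4 cell doublings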
OVCAR3 cells = test: MTT proliferation assay, OVCAR3; format: cell-based; conditions: 5 days compound exposure, 1:3 serial dilution starting at 10 μM;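 further: compound given as an 8- or 10-point series, one day after plating, with exposure covering roughly 3-4 cell doublings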
[1] = 8 nM Cyclin A2/Cdk2, 2 nM FAM probe, average of 2-3 independent experiments, read-out: Cyclin A FP IC50
[2] = 10 nM Cyclin B1/Cdk1, 2 nM FAM probe; average of 2-3 independent experiments; read-out: Cyclin B FP IC50
[3] = 10 nM Cyclin E1/Cdk2, 2 nM FAM probe, average of 2-3 independent experiments, read-out: Cyclin E FP IC50

| SMILES | IC50 (CyclinA2/CDK2) [nM] | IC50 (CyclinB1/CDK1; read-out: Cyclin B FP IC50; 10 nM Cyclin B1/Cdk1, 2 nM FAM probe; average of 2-3 independent experiments) [nM] | IC50 (CyclinE1/CDK2) [nM] | GI50 (WI-38 cells) [nM] | GI50 (NCI-H1048 cells) [nM] | GI50 (OVCAR3 cells) [nM] | IC50 (CyclinA2/CDK2; [1]) [nM] | IC50 (CyclinB1/CDK1; [2]) [nM] | IC50 (CyclinE1/CDK2; [3]) [nM] |
| --- | --- | --- | --- | --- | --- | --- | --- | --- | --- |
| CC(C)C[C@@H]1NC(=O)[C@@H](N(C)C(=O)[C@@H](NC(=O)[C@@H]2C[C@@H](F)CN2C(=O)C2(C(F)(F)F)CC(F)(F)C2)C2CC2)CCCCCCCN(C)C(=O)[C@H](Cc2cc(Cl)ccc2-c2cnn(S(C)(=O)=O)c2)N(C)C1=O [Example 238] ({cBuCO(3,3-F2-1-CF3)}-[Pro(trans-4-F)][Gly(cPr)][NMehhhLys(Me)]L[X82]; lactam 3-C) | 30 | 20 | 990 | 17300 | 10 | 20 | – | – | – |
| CC(C)C[C@@H]1NC(=O)[C@@H](N(C)C(=O)[C@@H](NC(=O)[C@@H]2N[C@@H](F)CC2C(=O)C2(C(F)(F)F)CC(F)(F)C2)C2CC2)CC=CCCCCN(C)C(=O)[C@H](Cc2cc(Cl)cnc2OC(C)C)N(C)C1=O (stereo partly drawn) [Example 130] | – | – | – | 8990 | 700 | 1550 | 70 | 20 | 310 |
| CC(C)C[C@@H]1NC(=O)[C@@H](N(C)C(=O)[C@@H](NC(=O)[C@@H]2C[C@@H](F)CN2C(=O)C2(C(F)(F)F)CCC2)C2CC2)CCCCCCCNC(=O)[C@H](Cc2cc(Cl)ccc2-c2cnn(C3CC3)c2)N(C)C1=O [Example 188] ({Cyclobutanecarbonyl(1-CF3)}-[Pro(trans-4-F)][Gly(cPr)][NMe(hhhLys)]L[X68]; lactam 3-C) | – | – | – | 3080 | 10 | 20 | 20 | 20 | 230 |
| CC(C)C[C@@H]1NC(=O)[C@@H](N(C)C(=O)[C@@H](NC(=O)[C@@H]2C[C@@H](F)CN2C(=O)C2(C(F)(F)F)CCC2)C2CC2)CC=CCCCCNC(=O)[C@H](Cc2cc(Cl)cnc2OC2CC2)N(C)C1=O (single isomer, unassigned) [Example 107-P1] | – | – | – | 5290 | 700 | 1010 | 250 | 20 | 540 |
| CC(C)C[C@@H]1NC(=O)[C@@H](N(C)C(=O)[C@@H](NC(=O)[C@@H]2C[C@@H](F)CN2C(=O)C2(C(F)(F)F)CC(F)(F)C2)C2CC2)CCCCCCCN(C)C(=O)[C@H](Cc2cc(Cl)cnc2N2CCOCC2)N(C)C1=O [Example 320] ({cBuCO(3,3-F2-1-CF3)}-[Pro(trans-4-F)][Gly(cPr)][NMehhhLys(Me)]L[X17]; lactam 3-C) | – | – | – | 15500 | 10 | 20 | 30 | 20 | 1450 |
| CC(C)C[C@@H]1NC(=O)[C@@H](N(C)C(=O)[C@@H](NC(=O)[C@@H]2C[C@@H](F)CN2C(=O)C2(C(F)(F)F)CC(F)(F)C2)C2CC2)CC=CCCCCNC(=O)[C@H](Cc2cc(Cl)ccc2-c2cnn(C3COC3)c2)N(C)C1=O [Example 27] | – | – | – | 11400 | 90 | 370 | 90 | 20 | 1900 |
| CC(C)C[C@@H]1NC(=O)[C@@H](N(C)C(=O)[C@@H](NC(=O)[C@@H]2C[C@@H](F)CN2C(=O)C2(C(F)(F)F)CCC2)C2CC2)CCCCCCCN(C)C(=O)[C@H](Cc2cc(F)ccc2-c2cnn(C)c2)N(C)C1=O [Example 69] ({Cyclobutanecarbonyl(1-CF3)}-[Pro(trans-4-F)][Gly(cPr)][NMehhhLys(Me)]L[X112]; lactam 3-C) | – | – | – | 17600 | 10 | 10 | 20 | 20 | 110 |
| CC(C)C[C@@H]1NC(=O)[C@@H](N(C)C(=O)[C@@H](NC(=O)[C@@H]2C[C@@H](F)CN2C(=O)C2(C(F)(F)F)CC(F)(F)C2)C2CC2)CCCCCCCN(C)C(=O)[C@H](Cc2cc(Cl)ccc2-c2cnn(C3CCS(=O)(=O)C3)c2)N(C)C1=O (stereo partly drawn) [Example 253] ({cBuCO(3,3-F2-1-CF3)}-[Pro(trans-4-F)][Gly(cPr)][NMehhhLys(Me)]L[X72]; lactam 3-C) | – | – | – | 9930 | 40 | 20 | 20 | 20 | 330 |
